Measurements from US20220211750A1, “COMPOSITIONS AND METHODS USING A COMBINATION OF CALCIUM AND AT LEAST ONE OF OLEUROPEIN OR METABOLITE THEREOF” (SOCIETE DES PRODUITS NESTLE S.A., priority 2019, published 2022).

Tested on: C2C12-derived myotubes
Assay: Mitochondrial calcium rise (mitochondrial aequorin) in caffeine-stimulated C2C12-derived myotubes
Format: cell-based, mouse
Conditions: evoked by 5 mM caffeine, vs 0.5 mM calcium in the medium
Description: To test the effect of Oleuropein, its metabolites and calcium supplementation/deficiency in living cells, the inventors measured mitochondrial calcium elevation in HeLa cells and in myotubes differentiated from both mouse C2C12 cells and human primary adult muscle cells. HeLa cells and C2C12 cells were purchased from ATCC. Human Skeletal Muscle Myoblasts (HSMM) were purchased from Lonza. HSMM were isolated from the upper arm or leg muscle tissue of normal donors and used after the second passage. HeLa cells were seeded in 96-well plates at a density of 50000 cells per well in minimal essential medium (DMEM, Gibco), high glucose, +10% fetal calf serum. C2C12 cells were seeded in 96-well plates at a density of 8000 cells per well in DMEM high glucose (Gibco)+10% fetal calf serum. Myotubes were differentiated from C2C12 cells by growing the cells in DMEM containing 2% horse serum, for 4 days. HSMM were seeded in 96-well plates at a density of 8000 cells per well in DMEM/F-12 (Gibco). […]
For treatment, compounds were directly added to the cell culture or myotubes cultures 2 hours before measurements. Luminescence was measured at the Cytation 3 cell imaging reader (Biotek) or at the FLIPR Tetra Aequorin (Molecular Devices). […] Custom module analysis based on Excel (Microsoft) and GhaphPad Prism 7.02 (GraphPad) software was used for quantification.

[Ca+2] [calcium]
integrated mitochondrial calcium rise, effect of extracellular calcium abundance (P<0.05, listed as Ca^2+): activates mitochondrial Ca^2+ elevation in a dose/response manner
integrated mitochondrial calcium rise, effect of extracellular calcium abundance (P<0.05, listed as Ca′): enhances mitochondrial Ca′ elevation in a dose/response manner
